For orientation: IC50 means the concentration that inhibits the measured activity by half. A high value points to weaker potency in that assay. The term half-life denotes the time in which the quantity being followed falls by half. A lower half-life goes with fast loss. By EC50 is commonly meant the concentration needed to bring the measured effect to its halfway point.

This is an account of results in ChEMBL document CHEMBL4251699, “In Search of the Optimal Macrocyclization Site for Neurotensin” (ACS Med Chem Lett, 2018).

Structures are written as SMILES. Numbered stars: 1 amine (or outer) side, 2 acyl side, 3 side chain; on linkers, the order of the positions; unused ones are H or OH. Bridge positions count the residues as written; N and C are the ends. Square brackets hold non-standard residues; d marks the D form. Peptide text beside a SMILES is read from it. * marks the point of attachment. X1 = O=C([C@H](Cc1ccc(O)c(CC=[*:3])c1)N[*:1])[*:2]; X3 = C=CCc1cc(C[C@H](N[*:1])C(=O)[*:2])ccc1O; Ser(allyl) = C=CCOC[C@H](N)C(=O)O; AllylGly = C=CC[C@H](N)C(=O)O; X2 = C=CCCCCCCC(=O)*

The target of data set [1] is T1, Neurotensin receptor type 1 (Homo sapiens, UniProt P30989). The data set is described as follows: Displacement of 125I-[Tyr3]-NT from human NTS1 receptor expressed in CHO-K1 cell membranes after 60 mins by gamma-counting method.
Data set [2] can be described thus: Half life in rat plasma by UPLC-MS analysis. It is filed as ADME, cell-free.
In data set [3] the target is T1, Neurotensin receptor type 1. The data set is described as follows: Agonist activity at GFP10-tagged human NTS1 expressed in CHO-K1 cells assessed as Rluc2-fused beta-arrestin2 recruitment after 20 mins by BRET assay. It is filed as functional, cell-based.

T1 sequence (P30989 whole entry): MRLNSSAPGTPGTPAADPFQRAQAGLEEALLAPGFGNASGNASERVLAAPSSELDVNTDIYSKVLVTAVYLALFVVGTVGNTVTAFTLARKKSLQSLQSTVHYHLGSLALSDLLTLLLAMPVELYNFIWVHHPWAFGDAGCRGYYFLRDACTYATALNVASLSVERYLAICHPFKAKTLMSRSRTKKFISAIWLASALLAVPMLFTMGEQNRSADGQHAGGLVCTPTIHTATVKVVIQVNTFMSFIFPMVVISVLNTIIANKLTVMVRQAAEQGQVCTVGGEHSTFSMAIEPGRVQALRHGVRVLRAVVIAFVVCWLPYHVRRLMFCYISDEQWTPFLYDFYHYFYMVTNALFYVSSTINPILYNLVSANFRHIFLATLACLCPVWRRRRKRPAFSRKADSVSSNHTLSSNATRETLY

For `CC(C)C[C@H](NC(=O)[C@@H]1CC=CC[C@H](N)C(=O)N[C@@H](CCCCN)C(=O)N2CCC[C@H]2C(=O)N[C@@H](Cc2ccc(O)cc2)C(=O)N1)C(=O)O`, the IC50 in data set [1] is 17 µM.

In data set [1], `CC(C)C[C@H](NC(=O)[C@@H]1CC=CC[C@@H](N)C(=O)N[C@@H](CCCCN)C(=O)N2CCC[C@H]2C(=O)N[C@@H](Cc2ccc(O)cc2)C(=O)N1)C(=O)O` gave an IC50 of 10 µM. Same read-out and setting: the value for `C=CC[C@H](NC(=O)[C@H](Cc1ccc(O)cc1)NC(=O)[C@@H]1CCCN1C(=O)[C@H](CCCCN)NC(=O)[C@@H](N)CC=C)C(=O)N[C@@H](CC(C)C)C(=O)O` (H-[AllylGly]KPY[AllylGly]L-OH) was 1.7 µM. The same measure, in the same setting: under `CC(C)C[C@H](NC(=O)[C@H]1CC=CC[C@H](N)C(=O)N[C@@H](CCCCN)C(=O)N2CCC[C@H]2C(=O)N[C@@H](Cc2ccc(O)cc2)C(=O)N1)C(=O)O` stands 14.3 µM.

Molecule `CC(C)C[C@H](NC(=O)[C@@H]1COCC=CCOC[C@H](N)C(=O)N[C@@H](CCCCN)C(=O)N2CCC[C@H]2C(=O)N[C@@H](Cc2ccc(O)cc2)C(=O)N1)C(=O)O` (H-[Ser(allyl)]KPY[Ser(allyl)]L-OH; staple 1-5) came in with an IC50 in data set [1] above 100 µM. For the molecule `CC[C@H](C)[C@H](NC(=O)[C@H](Cc1ccc(O)cc1)NC(=O)[C@@H]1CCCN1C(=O)[C@H](CCCNC(=N)N)NC(=O)[C@@H](N)CCCNC(=N)N)C(=O)N[C@@H](CC(C)C)C(=O)O`, the half-life in data set [2] was 0.05 h. Take `CC[C@H](C)[C@H](NC(=O)[C@@H]1Cc2ccc(O)c(c2)CC=CCCCCCCC(=O)N[C@@H](CCCCN)C(=O)N2CCC[C@H]2C(=O)N1)C(=O)N[C@@H](CC(C)C)C(=O)O`: the IC50 in data set [1] is 0.4 µM. For the same molecule, the EC50 in data set [3] was 1.37 µM. Moreover, the half-life in data set [2] is 12 h. The molecule `C=CCCCCCCC(=O)N[C@@H](CCCCN)C(=O)N1CCC[C@H]1C(=O)N[C@@H](Cc1ccc(O)c(CC=C)c1)C(=O)N[C@H](C(=O)N[C@@H](CC(C)C)C(=O)O)[C@@H](C)CC` (X2-KP[X3]IL-OH) returned an IC50 in data set [1] of 1.4 µM. Same read-out and setting: the value for `CC[C@H](C)[C@@H]1NC(=O)[C@H](Cc2ccc(O)cc2)NC(=O)[C@@H]2CCCN2C(=O)[C@@H](NC(=O)[C@@H](N)CCCCN)CC=CC[C@@H](C(=O)O)NC1=O` (H-K[AllylGly]PYI[AllylGly]-OH; staple 2-6) was above 100 µM; that for `CC[C@H](C)[C@H](NC(=O)[C@@H]1Cc2ccc(O)c(c2)CC=CCOC[C@H](NC(=O)[C@@H](N)CCCCN)C(=O)N2CCC[C@H]2C(=O)N1)C(=O)N[C@@H](CC(C)C)C(=O)O` (H-K[Ser(allyl)]P[X1]IL-OH; staple 2-4) was 10.3 µM; that for `CC(C)C[C@H](NC(=O)[C@@H]1COCC=CCc2cc(ccc2O)C[C@H](NC(=O)[C@@H]2CCCN2C(=O)[C@@H](N)CCCCN)C(=O)N1)C(=O)O` was 29.8 µM. On the same count and under the same terms, the value for `CC(C)C[C@H](NC(=O)[C@H]1CC=CC[C@@H](N)C(=O)N[C@@H](CCCCN)C(=O)N2CCC[C@H]2C(=O)N[C@@H](Cc2ccc(O)cc2)C(=O)N1)C(=O)O` was 19.8 µM; that for `CC[C@H](C)[C@H](NC(=O)[C@@H]1Cc2ccc(O)c(c2)CC=CC[C@H](NC(=O)[C@@H](N)CCCCN)C(=O)N2CCC[C@H]2C(=O)N1)C(=O)N[C@@H](CC(C)C)C(=O)O` (H-K[AllylGly]P[X1]IL-OH; staple 2-4) was 7.6 µM.
